Test results: patent US8846951B2 (AbbVie Inc., priority 2009, dated 2014); call rule not given here
Like-named read-outs stand apart in the source and are kept apart here.

Columns and labels:
[1] = target: T1, 5HT2B receptors (Homo sapiens, UniProt P41595); assay: Human 5-HT2B functional high throughput screening assay in CHO-K1 cells (calcium flux); type: cell-based; details: for EC50: CHO-K1 cells, calcium flux
T1 construct: expressed in transfected cells; host or cells: CHO-K1 cells
Method in brief: (§1)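 Serum-starved CHO-K1 cells carrying the receptor; Ca4 dye, 60 min RT. Test compound added after a 10 s baseline, fluorescence followed for 3 min. EC50 from 4-parameter fit; Emax given as % of serotonin effect.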

[2] = target: T2, 5HT2C receptors (Homo sapiens, UniProt P28335); assay: Human 5-HT2C functional high throughput screening assay in CHO-K1 cells (calcium flux); type: cell-based; parameters: expressed in transfected cells; host or cells: CHO-K1 cells; details: for EC50: CHO-K1 cells, calcium flux; for Emax: CHO-K1, 5-HT2C, maximum functional response as percentage relative to the effect of serotonin
T2 sequence (P28335 33-458): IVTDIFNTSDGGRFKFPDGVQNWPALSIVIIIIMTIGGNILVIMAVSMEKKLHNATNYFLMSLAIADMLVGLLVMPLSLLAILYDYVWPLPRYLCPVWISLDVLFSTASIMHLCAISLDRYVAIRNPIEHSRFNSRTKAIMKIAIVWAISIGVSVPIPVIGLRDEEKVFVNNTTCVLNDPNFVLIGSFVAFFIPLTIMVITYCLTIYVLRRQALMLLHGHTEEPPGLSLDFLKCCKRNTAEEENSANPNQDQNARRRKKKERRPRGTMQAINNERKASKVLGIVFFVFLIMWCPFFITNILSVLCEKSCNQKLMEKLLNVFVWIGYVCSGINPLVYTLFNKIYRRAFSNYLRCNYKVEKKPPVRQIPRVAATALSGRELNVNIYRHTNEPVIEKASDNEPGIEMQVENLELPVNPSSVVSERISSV
Method in brief: as §1

[3] = 5-HT2B agonist activity, read-out: EC50
[4] = 5-HT2B, maximum functional response as percentage relative to the effect of serotonin
[5] = 5-HT2C agonist activity, read-out: EC50
[6] = CHO-K1, 5-HT2B, maximum functional response as percentage relative to the effect of serotonin, read-out: Emax

T1 sequence (P41595 whole entry): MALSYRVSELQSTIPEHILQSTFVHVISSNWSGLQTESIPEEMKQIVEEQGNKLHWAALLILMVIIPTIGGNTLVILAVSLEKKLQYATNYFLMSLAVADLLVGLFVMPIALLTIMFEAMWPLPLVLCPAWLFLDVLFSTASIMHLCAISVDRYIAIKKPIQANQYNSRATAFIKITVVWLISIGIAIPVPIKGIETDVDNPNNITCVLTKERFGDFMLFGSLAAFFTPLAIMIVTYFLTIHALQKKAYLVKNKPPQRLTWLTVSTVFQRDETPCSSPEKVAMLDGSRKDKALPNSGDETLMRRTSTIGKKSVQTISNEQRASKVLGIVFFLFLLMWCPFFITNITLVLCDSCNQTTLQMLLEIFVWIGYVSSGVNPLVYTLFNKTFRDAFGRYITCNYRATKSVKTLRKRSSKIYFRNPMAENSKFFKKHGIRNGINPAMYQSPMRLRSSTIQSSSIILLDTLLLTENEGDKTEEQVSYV

EC50 [1, 3] [nM] | Emax [1, 4] | EC50 [2, 5] [nM] | Emax ([2]; read-out: Emax) [%] | Emax [1, 6] [%] | SMILES | Emax ([1]; CHO-K1) [%] | EC50 ([1]; EC50, 5-HT2B agonist activity) [nM] | Emax [2] [%] | EC50 ([2]; EC50, 5-HT2C agonist activity) [nM]
> 10000 | inactive | 90 | 90 | – | O=S(=O)(c1ccc(C(F)(F)F)cc1)N1Cc2cccnc2[C@@H]2CNC[C@H]2C1 (relative stereo) [Example 347, Trans-6-{[4-(trifluoromethyl)phenyl]sulfonyl}-5,6,7,7a,8,9,10,10a-octahydropyrido[3,2-c]pyrrolo[3,4-e]azepine] | – | – | – | –
– | – | – | – | – | Cc1cccc(S(=O)(=O)N2Cc3cccnc3[C@@H]3CNC[C@H]3C2)c1 (relative stereo) [Example 348, Trans-6-[(3-methylphenyl)sulfonyl]-5,6,7,7a,8,9,10,10a-octahydropyrido[3,2-c]pyrrolo[3,4-e]azepine] | 50 | 800 | 85 | 70
> 10000 | inactive | 200 | 90 | – | O=S(=O)(c1ccc(OC(F)(F)F)cc1)N1Cc2cccnc2[C@@H]2CNC[C@H]2C1 (relative stereo) [Example 349, Trans-6-{[4-(trifluoromethoxy)phenyl]sulfonyl}-5,6,7,7a,8,9,10,10a-octahydropyrido[3,2-c]pyrrolo[3,4-e]azepine] | – | – | – | –
> 10000 | inactive | 1000 | 75 | – | CS(=O)(=O)c1cccc(-c2cccc3c2OCC[C@H]2CNC[C@H]32)c1 (relative stereo) [Example 350, Trans-7-[3-(methylsulfonyl)phenyl]-2,3,3a,4,5,10b-hexahydro-1H-[1]benzoxepino[4,5-c]pyrrole] | – | – | – | –
> 10000 | inactive | 90 | 90 | – | CC(=O)c1cccc(-c2cccc3c2OCC[C@H]2CNC[C@H]32)c1 (relative stereo) [Example 351, 1-{3-[Trans-2,3,3a,4,5,10b-hexahydro-1H-[1]benzoxepino[4,5-c]pyrrol-7-yl]phenyl}ethanone] | – | – | – | –
200 | – | 300 | 80 | 95 | COc1ccccc1S(=O)(=O)N1Cc2cccnc2[C@@H]2CNC[C@H]2C1 (relative stereo) [Example 354, Trans-6-[(2-methoxyphenyl)sulfonyl]-5,6,7,7a,8,9,10,10a-octahydropyrido[3,2-c]pyrrolo[3,4-e]azepine] | – | – | – | –
6000 | – | 100 | 90 | 10 | N#Cc1ccccc1S(=O)(=O)N1Cc2cccnc2[C@@H]2CNC[C@H]2C1 (relative stereo) [Example 355, 2-[Trans-7,7a,8,9,10,10a-hexahydropyrido[3,2-c]pyrrolo[3,4-e]azepin-6(5H)-ylsulfonyl]benzonitrile] | – | – | – | –
– | – | – | – | – | Cc1ccc(S(=O)(=O)N2Cc3cccnc3[C@@H]3CNC[C@H]3C2)cc1 (relative stereo) [Example 356, Trans-6-[(4-methylphenyl)sulfonyl]-5,6,7,7a,8,9,10,10a-octahydropyrido[3,2-c]pyrrolo[3,4-e]azepine] | 15 | 1000 | 90 | 40
– | – | – | – | – | O=S(=O)(c1cccc(Cl)c1)N1Cc2cccnc2[C@@H]2CNC[C@H]2C1 (relative stereo) [Example 359, Trans-6-[(3-chlorophenyl)sulfonyl]-5,6,7,7a,8,9,10,10a-octahydropyrido[3,2-c]pyrrolo[3,4-e]azepine] | 30 | 500 | 80 | 100

SMILES | EC50 [1, 3] [nM] | Emax [1, 4] | EC50 [2, 5] [nM] | Emax ([2]; read-out: Emax) [%] | Emax [1, 6] [%] | Emax ([1]; CHO-K1) [%] | EC50 ([1]; EC50, 5-HT2B agonist activity) [nM] | Emax [2] [%] | EC50 ([2]; EC50, 5-HT2C agonist activity) [nM]
O=S(=O)(c1ccc(F)cc1)N1Cc2cccnc2[C@@H]2CNC[C@H]2C1 (relative stereo) [Example 357, Trans-6-[(4-fluorophenyl)sulfonyl]-5,6,7,7a,8,9,10,10a-octahydropyrido[3,2-c]pyrrolo[3,4-e]azepine] | – | inactive | – | – | – | – | > 10000 | 85 | 100
O=S(=O)(c1cccs1)N1Cc2cccnc2[C@@H]2CNC[C@H]2C1 (relative stereo) [Example 358, Trans-6-(2-thienylsulfonyl)-5,6,7,7a,8,9,10,10a-octahydropyrido[3,2-c]pyrrolo[3,4-e]azepine] | > 10000 | inactive | 300 | – | – | – | – | 20 | –
